Measured values as given in patent publication US12201620B2, “Compositions and methods for treating chemotherapy resistant cancer” (The Brigham And Women's Hospital, Inc., priority 2016, dated 2025).
“Also recorded” adds a separate entry of the source.

Assays:
[1] = test system: Molm13 PPM1D-mutant and control single cell clones; assay: Annexin V staining and flow cytometric analysis; type: cell-based, human; conditions: 3 μM of GSK2830371
Excerpt: FIG. 9E is a chart depicting the consensus sequence of PPM1D based on substrate analysis of 43 substrate candidates of PPM1D. FIG. 9F depicts 43 potential PPM1D substrate sites on pSer/Thr residues on 25 proteins. […] Only localized sites were considered. Figure discloses SEQ ID NOS 4-20 and 20-31, respectively, in order of appearance. FIG. 9G depicts a schema illustrating the components of the DNA-damage response pathway that are targeted by PPM1D in leukemia cells, based on the results from the phosphoproteomics analysis. Phospho-targets of PPM1D identified by mass spectrometry (FDR<0.1) are shown in bold. Predicted PPM1D target sites that were based on the identified consensus sequence with a glutamine at +1 and >2 acidic residues (p=3.595e-13, Fisher's exact test) are shown in italics.
(§1) 72 hour cell viability analysis in Molm13 PPM1D-mutant and control single cell clones after exposure to increasing doses of GSK2830371. FIG. 10F is a graph showing percent Annexin V positive cells in cells treated with PPM1D inhibitor or vehicle. Annexin V staining and flow cytometric analysis of Molm13 PPM1D-mutant and control single cell clones exposed to 3 μM of GSK2830371. *=p<0.05, **=p<0.01, ***=p<0.001

PPM1D phosphatase = molecular target: T1, PPM1D phosphatase (Homo sapiens, UniProt O15297); conditions: Gilmartin et al. 2014; cited from earlier work
T1 sequence (O15297 1-605): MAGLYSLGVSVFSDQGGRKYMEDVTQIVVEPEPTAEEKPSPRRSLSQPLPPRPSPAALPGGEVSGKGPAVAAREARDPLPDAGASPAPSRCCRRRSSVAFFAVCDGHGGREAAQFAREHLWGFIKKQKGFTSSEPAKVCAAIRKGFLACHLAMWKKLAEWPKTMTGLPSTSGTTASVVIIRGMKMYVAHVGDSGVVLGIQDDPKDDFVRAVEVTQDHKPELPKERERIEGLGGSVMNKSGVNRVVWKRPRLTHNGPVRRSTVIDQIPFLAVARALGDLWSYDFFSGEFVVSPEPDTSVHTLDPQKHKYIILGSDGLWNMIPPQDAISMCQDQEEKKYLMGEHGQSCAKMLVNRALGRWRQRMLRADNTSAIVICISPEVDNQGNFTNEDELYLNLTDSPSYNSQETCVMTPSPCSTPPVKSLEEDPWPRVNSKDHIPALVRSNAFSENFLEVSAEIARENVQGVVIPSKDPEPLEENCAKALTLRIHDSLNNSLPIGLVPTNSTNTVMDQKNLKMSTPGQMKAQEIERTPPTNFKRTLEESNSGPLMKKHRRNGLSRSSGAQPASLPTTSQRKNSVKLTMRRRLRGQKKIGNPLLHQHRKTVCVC

[2] = test system: Molm13 PPM1D-mutant pooled cells and control pooled cells; assay: In vitro competition experiment, PPM1D-mutant cells mixed with control cells; type: cell-based, human; conditions: 1:9 ratio, 100 nM cytarabine plus 100 nM GSK2830371
Protocol: FIG. 2B provides immunoblots of whole cell lysates from Molm13 control cells (control), PPM1D-mutant pooled clones and PPM1D frame-shift (fs) mutant single cell clones probed with anti-PPM1D and anti-Actin. […] FIG. 2D is a plot depicting viability assays in Molm13 PPM1D-mutant or control single cells clones that were treated with increasing concentrations of cyclophosphamide for 72 hours. FIG. 2E is a plot depicting viability assays in Molm13 PPM1D-mutant or control single cells clones that were treated with increasing concentrations of cisplatin for 72 hours. […] FIG. […] FIG. […] PPM1D and control sgRNAs were identified through their fluorophores.
as §1
(§2) To study the sensitivity of PPM1D truncating mutations to chemotherapy exposure, frame-shift mutations were introduced in the PPM1D gene in Molm13 AML cells, which are TP53 wild-type, using CRISPR-Cas9.

[3] = test system: Molm13 PPM1D-mutant cells; assay: Quantitative phosphoproteomic analysis (KEGG P53 pathway phosphosites); type: cell-based, human; conditions: 400 nM AraC + 1 μM GSK2830371, 4 hours
Protocol: as §1
To explore the spectrum of PPM1D targets in hematopoietic cells, a quantitative phosphoproteomic analysis was performed in PPM1D wild-type and mutant cells at baseline and in response to chemotherapy. […] In addition, CDKN1A (p21) was identified as a new DNA damage response target of PPM1D. Based on the peptides with altered phosphorylation in PPM1D-mutant cells, a consensus sequence was identified for the serine-threonine phosphatase activity of PPM1D (FIGS. 9E and 9F). Because many phosphorylation sites are not located on peptides that are detected by mass spectrometry, the consensus sequence was used to predict additional PPM1D targets. Known PPM1D targets, including TP53, CHEK1, CHEK2, ATM, ATR and MDM2, bear the consensus target sequence. In addition, new phosphorylation sites were identified in components of the DNA damage response pathway that are predicted targets of PPM1D based on the consensus sequence. […]

[4] = test system: Molm13 PPM1D-mutant and control single cell clones; assay: 72-hour cell viability analysis; type: cell-based, human
Protocol: FIG. 2B provides immunoblots of whole cell lysates from Molm13 control cells (control), PPM1D-mutant pooled clones and PPM1D frame-shift (fs) mutant single cell clones probed with anti-PPM1D and anti-Actin. […] FIG. 2D is a plot depicting viability assays in Molm13 PPM1D-mutant or control single cells clones that were treated with increasing concentrations of cyclophosphamide for 72 hours. FIG. 2E is a plot depicting viability assays in Molm13 PPM1D-mutant or control single cells clones that were treated with increasing concentrations of cisplatin for 72 hours. […] FIG. 2G is a plot depicting flow cytometric readout of competition experiment with 5% pooled Molm13 PPM1D-mutant cells and 95% pooled Molm13 control cells exposed to 350 nM Cyclophosphamide or vehicle for 24 days. FIG. 2H is a plot depicting flow cytometric readout of competition experiment with 5% pooled Molm13 PPM1D-mutant cells and 95% pooled Molm13 control cells exposed to 1 μM Cisplatin or vehicle for 24 days. […] PPM1D and control sgRNAs were identified through their fluorophores.
The line represents the locally weighted scatterplot smoothing (LOESS) of 0.1. […] FIG. 8B is a vector map of the degradation reporter vector, with different PPM1D cDNA constructs inserted. FIG. 8C is a graph showing EGFP/mCherry ratio for Molm13 cells with overexpression of wild type PPM1D, truncated PPM1D or the C-terminal end of PPM1D. FIG. 8D is a graph showing EGFP/mCherry ratio for Molm13 p53^−/− cells with overexpression of wild type PPM1D, truncated PPM1D or the C-terminal end of PPM1D. FIG. 8E is a graph showing EGFP/mCherry ratio in Molm13 cells before and after exposure to MG132 (10 μM, 6 hours), normalized to pre-treatment values. FIG. 8F is a plot showing cell viability analysis in Molm13 control cells (control), Molm13 PPM1D truncating mutant cells (PPM1D mutant) and Molm13 cells with overexpression of wild-type PPM1D (WT overexpression). […] For all experiments the following apply: *=p<0.05, **=p<0.01, ***=p<0.001,****=p<0.0001
as §1
To study the role of PPM1D mutations in chemotherapy resistance, mutations in PPM1D were induced using the CRISPR-Cas9 system. […] Using sequence verified PPM1D mutant (fs) and empty vector control Molm13 cells, the effects of mutant and wild type PPM1D in the response to DNA damaging chemotherapy were analyzed. […] (FIG. 1C).
as §2

[5] = test system: Molm13 PPM1D-mutant and Molm13 control single cell clones; assay: Immunoblot of whole cell lysates for p53 Ser15 and Chk1 Ser345 phosphorylation; type: cell-based, human; conditions: Molm13 PPM1D-mutant cells, 1 hour pretreated with GSK2830371, exposed to 400 nM cytarabine

## Cc1ncc(Cl)cc1NCc1ccc(C(=O)N[C@@H](CC2CCCC2)C(=O)NC2CC2)s1 [GSK2830371]
[1]
  sensitivity of PPM1D-mutant cells versus control cells to single agent PPM1D inhibitor, Annexin V staining: increased sensitivity to single agent PPM1D inhibitor treatment when compared to control cells
PPM1D phosphatase
  selectivity for the PPM1D phosphatase: highly selective for the PPM1D phosphatase
[2]
  competitive advantage of PPM1D-mutant cells during cytarabine plus PPM1D inhibitor: reversed the competitive advantage of PPM1D mutant cells; also recorded: could be reversed
[3]
  aberrant phosphorylation pattern of PPM1D-mutant cells in response to chemotherapy: reversed the aberrant PPM1D mutant phosphorylation pattern; also recorded: complete reversal of the aberrant phosphorylation pattern
[4]; 72 hour, increasing doses
  sensitivity of PPM1D-mutant cells versus control cells to single agent PPM1D inhibitor, cell viability: PPM1D mutant cells had an increased sensitivity; also recorded: increased sensitivity to single agent PPM1D inhibitor treatment when compared to control cells; also recorded: increased sensitivity to PPM1D inhibition with either compound in comparison to wild type control cells; also recorded: selectively kills PPM1D-mutant cells
[4]; pre-treated 1 hour with 3 μM GSK2830371, 72-hour cytarabine treatment
  sensitivity of PPM1D-mutant cells to cytarabine when combined with PPM1D inhibitor: increased the sensitivity of Molm13 PPM1D-mutant cells to cytarabine; also recorded: reverses the chemotherapy resistance phenotype
[5]
  p53 Ser15 phosphorylation with PPM1D inhibitor: increased the phosphorylation of p53
[5]; listed as GKS2830371
  p53 Ser15 phosphorylation with PPM1D inhibitor: increased p53 Ser15 phosphorylation
